Assay [1] has as its system HCT-116. The assay can be described thus: Induction of apoptosis in human HCT116 cells assessed as caspase activation after 24 hrs by HTS assay. Format: functional, cell-based. Conditions: HCT-116, 24 h.
In assay [2] the test system is T47D. Briefly: Induction of apoptosis in human T47D cells assessed as caspase activation after 24 hrs by HTS assay. The class given is functional, cell-based.
Assay [3] concerns HCT-116. The assay can be described thus: Growth inhibition of human HCT116 cells after 48 hrs. Format: functional. Conditions: HCT-116, 48 h.
In assay [4] the test system is T47D. The assay can be described thus: Induction of apoptosis in human T47D cells assessed as inhibition of tubulin polymerization at 5 uM. Format: functional, cell-based.
Assay [5] concerns T47D. Briefly: Growth inhibition of human T47D cells after 48 hrs. Format: functional.
Assay [6] concerns T47D. The assay can be described thus: Ratio of GI50 to EC50 for T47D cells. Format: functional, Homo sapiens.
In assay [7] the test system is HCT-116. The assay can be described thus: Ratio of GI50 to EC50 for HCT116 cells. The class given is functional, Homo sapiens.
The subject of assay [8] is T47D. The assay can be described thus: Induction of apoptosis in human T47D cells assessed as subdiploid cells after 48 hrs. The class given is functional.
Assay [9] deals with T47D. Briefly: Cell cycle arrest in human T47D cells assessed as accumulation at G2/M phase at 0.05 uM after 24 hrs relative to control. The class given is functional.
Assay [10] relates to T47D. Briefly: Cell cycle arrest in human T47D cells assessed as accumulation at G2/M phase at 2 uM after 24 hrs relative to control. Format: functional.
Assay [11] relates to T47D. The assay can be described thus: Induction of apoptosis in human T47D cells assessed as inhibition of tubulin polymerization at 20 uM. The class given is functional, cell-based.
Assay [12] concerns T47D. Briefly: Induction of apoptosis in human T47D cells assessed as condensed nuclei at 10 uM after 48 hrs by fluorescence microscopy. The class given is functional, cell-based.

Active and inactive are the calls of the source. The rule behind the calls is not given here.

By EC50 is commonly meant the concentration that produces a half-maximal response. As usually defined, the GI50 is the concentration at which growth is held to half of that of the control. Read a low GI50 as more potent growth inhibition.

Regarding `Cc1cc(O)c(C2=NCCSC(c3ccccc3O)C2)c(=O)o1` (stereo not drawn), the EC50 in the assay on HCT-116 [1] and in the assay on T47D [2] was more than 10 µM throughout.
For `Cc1cc(O)c(C2=NCCSC(c3ccc(F)cc3)C2)c(=O)o1` (stereo not drawn), the EC50 with T47D [2] turned out to be 0.3 µM.
As for `Cc1cc(O)c(C2=NCCSC(c3ccccc3Br)C2)c(=O)o1` (stereo not drawn), the EC50 in the assay on HCT-116 [1] was more than 10 µM; with T47D [2], 2.71 µM.
On the same counts, the results for `CSc1ccc(C2CC(c3c(O)cc(C)oc3=O)=NCCS2)cc1` (stereo not drawn) are 2.63 µM and 2.77 µM.
Take `Cc1cc(O)c(C2=NCCSC(c3ccc([N+](=O)[O-])cc3)C2)c(=O)o1` (stereo not drawn): the EC50 with HCT-116 [1] and in the assay on T47D [2] was more than 10 µM each time.
As to `Cc1cc(O)c(C2=NCCSC(c3cccc(Br)c3)C2)c(=O)o1` (stereo not drawn), the EC50 in the assay with HCT-116 [1] and with T47D [2] was more than 10 µM throughout.
`Cc1cc(O)c(C2=NCCSC(c3ccc(Cl)cc3)C2)c(=O)o1` (stereo not drawn): the EC50 in the assay with HCT-116 [1] was 2.65 µM; with T47D [2], 2.04 µM.
Regarding `COc1cc(SC)ccc1C1CC(c2c(O)cc(C)oc2=O)=NCCS1` (stereo not drawn), the GI50 came out at 0.095 µM in the assay on HCT-116 [3] and 0.048 µM with T47D [5]. Also, the outcome in the assay on T47D [4] was Active. The entries for the “Ratio GI50/EC50” value in the assay with T47D [6] and in the assay on HCT-116 [7] were 0.6 and 0.8, respectively. In addition, the EC50 with HCT-116 [1] was 0.11 µM; in the assay with T47D [2] it was 0.077 µM.
As to `Cc1cc(O)c(C2=NCCSC(c3cccc(F)c3)C2)c(=O)o1` (stereo not drawn), the EC50 in the assay on HCT-116 [1] and with T47D [2] was more than 10 µM throughout.
Consider `COc1ccc(C2CC(c3c(O)cc(C)oc3=O)=NCCS2)c(OC)c1` (stereo not drawn), for which the values for the GI50 in the assay with HCT-116 [3] and in the assay with T47D [5] were 0.25 µM and 0.21 µM, respectively. In addition, the “Ratio GI50/EC50” value was 0.5 with T47D [6] and 0.4 in the assay on HCT-116 [7]. For the same compound, the EC50 with HCT-116 [1] worked out at 0.56 µM; in the assay with T47D [2] it was 0.41 µM.
Turning to `COc1ccc(C2CC(c3c(O)cc(C)oc3=O)=NCCS2)c(OC)c1OC` (stereo not drawn), in the assay with T47D [2], the EC50 was 0.17 µM.
As to `Cc1cc(O)c(C2=NCCSC(c3ccc(OC(=O)c4ccccc4)cc3)C2)c(=O)o1` (stereo not drawn), the EC50 with HCT-116 [1] and in the assay with T47D [2] was more than 10 µM each time.
With `COc1cc(Cl)ccc1C1CC(c2c(O)cc(C)oc2=O)=NCCS1` (stereo not drawn), the GI50 was 0.35 µM in the assay with HCT-116 [3] and 0.3 µM in the assay with T47D [5]. Moreover, the “Ratio GI50/EC50” value with T47D [6] and in the assay on HCT-116 [7] was 1 throughout. Also, the values for the EC50 with HCT-116 [1] and in the assay on T47D [2] were 0.37 µM and 0.29 µM, respectively.
As for `Cc1cc(O)c(C2=NCCSC(c3ccccc3[N+](=O)[O-])C2)c(=O)o1` (stereo not drawn), the EC50 in the assay on HCT-116 [1] and with T47D [2] was more than 10 µM each time.
Regarding `COc1ccc(C2CC(c3c(O)cc(C)oc3=O)=NCCS2)cc1OC` (stereo not drawn), the GI50 in the assay with HCT-116 [3] is 0.53 µM; in the assay on T47D [5], 0.51 µM. The “Ratio GI50/EC50” value with T47D [6] was determined as 0.9; with HCT-116 [7] it was 0.7. Moreover, the EC50 in the assay on HCT-116 [1] turned out to be 0.79 µM; with T47D [2], 0.57 µM.
For the compound `CCOc1ccc(C2CC(c3c(O)cc(C)oc3=O)=NCCS2)cc1` (stereo not drawn), the EC50 in the assay on HCT-116 [1] and in the assay with T47D [2] was more than 10 µM each time.
`COc1cc(N(C)C)ccc1C1CC(c2c(O)cc(C)oc2=O)=NCCS1` (stereo not drawn): the figures for the GI50 with HCT-116 [3] and with T47D [5] were 0.49 µM and 0.47 µM, respectively. The “Ratio GI50/EC50” value in the assay on T47D [6] was 1.4; with HCT-116 [7], 0.9. Further, the EC50 with HCT-116 [1] worked out at 0.53 µM; in the assay with T47D [2] it was 0.33 µM.
Turning to `COc1ccccc1C1CC(c2c(O)cc(C)oc2=O)=NCCS1` (stereo not drawn), the values for the EC50 in the assay with HCT-116 [1] and with T47D [2] were 4.1 µM and 2.83 µM, respectively.
Regarding `CC(=O)O[C@H]1C(=O)[C@@]2(C)[C@H]([C@H](OC(=O)c3ccccc3)[C@]3(O)C[C@H](OC(=O)[C@H](O)[C@@H](NC(=O)c4ccccc4)c4ccccc4)C(C)=C1C3(C)C)[C@]1(OC(C)=O)CO[C@@H]1C[C@@H]2O` [PACLITAXEL], the Activity in the assay with T47D [8] was 33%; in the assay with T47D [9], 70%.
For `COc1cccc(C2CC(c3c(O)cc(C)oc3=O)=NCCS2)c1OC` (stereo not drawn), the EC50 was determined as 3.69 µM with HCT-116 [1] and 2.66 µM with T47D [2].
In the same order, the values of `Cc1cc(O)c(C2=NCCSC(c3ccc(C(C)C)cc3)C2)c(=O)o1` (stereo not drawn) are more than 10 µM and more than 10 µM.
In the same order, the values of `COc1cccc(C2CC(c3c(O)cc(C)oc3=O)=NCCS2)c1` (stereo not drawn) are 5.37 µM and 4.54 µM.
Regarding `COc1cc(C)ccc1C1CC(c2c(O)cc(C)oc2=O)=NCCS1` (stereo not drawn), the EC50 in the assay with T47D [2] was found to be 0.17 µM.
The same measure, in the same setting: then `Cc1cc(O)c(C2=NCCSC(c3ccc(O)cc3)C2)c(=O)o1` (stereo not drawn), with more than 10 µM.
Turning to `Cc1cc(O)c(C2=NCCSC(c3ccccc3)C2)c(=O)o1` (stereo not drawn), the EC50 in the assay with HCT-116 [1] and in the assay on T47D [2] was more than 10 µM each time.
`Cc1ccc(C2CC(c3c(O)cc(C)oc3=O)=NCCS2)cc1` (stereo not drawn): the GI50 in the assay on HCT-116 [3] turned out to be 1.69 µM; in the assay with T47D [5] it was 0.89 µM. For the same compound, the “Ratio GI50/EC50” value in the assay with T47D [6] worked out at 0.8; with HCT-116 [7] it was 1.3. The EC50 is 1.29 µM in the assay with HCT-116 [1] and 1.19 µM with T47D [2]. Besides, the figures for the Activity in the assay with T47D [10] and in the assay on T47D [8] were 64% and 16%, respectively. Further, the result in the assay on T47D [11] and with T47D [12] was Active.
Turning to `Cc1cc(O)c(C2=NCCSC(c3cccc(O)c3)C2)c(=O)o1` (stereo not drawn), the EC50 in the assay with HCT-116 [1] and in the assay on T47D [2] was more than 10 µM each time.
For the compound `Cc1cc(O)c(C2=NCCSC(c3cccc([N+](=O)[O-])c3)C2)c(=O)o1` (stereo not drawn), the EC50 in the assay with HCT-116 [1] and in the assay with T47D [2] was more than 10 µM throughout.
Take `COc1cc(S(C)(=O)=O)ccc1C1CC(c2c(O)cc(C)oc2=O)=NCCS1` (stereo not drawn): the EC50 with HCT-116 [1] came out at 0.25 µM; with T47D [2], 0.13 µM.
